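Following 48 hours of exposure in 96-well plates, responses at five concentrations were used to interpolate endpoints linearly. The concentration for 50% growth inhibition is given as GI50.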 Calls of active or inactive are those of the source. Rule as the data show it: active = GI50 up to about 1.1 µM and inactive = higher.
Legend:
Assay in all cases: NCI anticancer screen, dose series, 48 h
A498 = system: A498
A549 = system: A549
BT-549 = system: BT-549
CCRF-CEM = system: CCRF-CEM
DLD-1 = system: DLD-1
HCC 2998 = system: HCC 2998
HOP-62 = system: HOP-62
HOP-92 = system: HOP-92
HT-29 = system: HT-29
IGROV-1 = system: IGROV-1
KM-20L2 = system: KM-20L2
MDA-MB-231 = system: MDA-MB-231
MDA-N = system: MDA-N
NCI-H522 = system: NCI-H522
SK-MEL-2 = system: SK-MEL-2
SK-MEL-5 = system: SK-MEL-5
SK-OV-3 = system: SK-OV-3
SNB-19 = system: SNB-19
T47D = system: T47D
TK-10 = system: TK-10

Structure (SMILES) | GI50 (A498) | GI50 (A549) | GI50 (BT-549) | GI50 (CCRF-CEM) | GI50 (DLD-1) | GI50 (HCC 2998) | GI50 (HOP-62) | GI50 (HOP-92) | GI50 (HT-29) | GI50 (IGROV-1) | GI50 (KM-20L2) | GI50 (MDA-MB-231) | GI50 (MDA-N) | GI50 (NCI-H522) | GI50 (SK-MEL-2) | GI50 (SK-MEL-5) | GI50 (SK-OV-3) | GI50 (SNB-19) | GI50 (T47D) | GI50 (TK-10)
CC(=O)OC1=CC2(OC(C)=O)CC(C)(C)C1C1C(=O)C=CC(=O)C12 (centres undefined) | 72.8 µM (inactive) | > 100 µM (inactive) | 11.3 µM (inactive) | > 100 µM (inactive) | > 100 µM (inactive) | > 58.3 µM (inactive) | > 80.9 µM (inactive) | 42.5 µM (inactive) | 19.8 µM (inactive) | > 50.7 µM (inactive) | > 100 µM (inactive) | 54 µM (inactive) | 31.1 µM (inactive) | > 36.5 µM (inactive) | > 100 µM (inactive) | > 85.3 µM (inactive) | > 100 µM (inactive) | > 100 µM (inactive) | 49.4 µM (inactive) | > 100 µM (inactive)
Cc1nc2ccccc2c(=O)n1/N=C(\N=N\c1cc(Cl)ccc1Cl)c1ccccc1 | > 94.2 µM (inactive) | 71 µM (inactive) | 38.6 µM (inactive) | 48.6 µM (inactive) | 45.6 µM (inactive) | 32.1 µM (inactive) | 12.4 µM (inactive) | 30.4 µM (inactive) | 36.7 µM (inactive) | 44.6 µM (inactive) | 0.412 µM (active) | > 100 µM (inactive) | – | 29.9 µM (inactive) | 60.5 µM (inactive) | 36.2 µM (inactive) | > 63 µM (inactive) | 29 µM (inactive) | > 100 µM (inactive) | > 93.5 µM (inactive)
O=NN(CCCl)C(=O)NCCCl [CARMUSTINE] | 102 µM (inactive) | 103 µM (inactive) | 79.3 µM (inactive) | 18.7 µM (inactive) | 76.6 µM (inactive) | 93.8 µM (inactive) | 97.3 µM (inactive) | 65.2 µM (inactive) | 79.3 µM (inactive) | 70.6 µM (inactive) | 94 µM (inactive) | 91 µM (inactive) | 71.3 µM (inactive) | 42.9 µM (inactive) | 91 µM (inactive) | 78.7 µM (inactive) | 115 µM (inactive) | 68.4 µM (inactive) | 110 µM (inactive) | 93.1 µM (inactive)
